The values that follow come from patent US12479847B2 (DANA-FARBER CANCER INSTITUTE, INC., priority 2019, dated 2025).

Experiment in all cases: KINOMEscan (ScanMAX) kinase profiling
Common to all, as to type: binding

For experiment [1], the target named is T1, panel of 468 kinases (Homo sapiens, UniProt Q96PN8).
T1 construct: purchased KINOMEscan (ScanMAX) service
T1 sequence (Q96PN8 1-268): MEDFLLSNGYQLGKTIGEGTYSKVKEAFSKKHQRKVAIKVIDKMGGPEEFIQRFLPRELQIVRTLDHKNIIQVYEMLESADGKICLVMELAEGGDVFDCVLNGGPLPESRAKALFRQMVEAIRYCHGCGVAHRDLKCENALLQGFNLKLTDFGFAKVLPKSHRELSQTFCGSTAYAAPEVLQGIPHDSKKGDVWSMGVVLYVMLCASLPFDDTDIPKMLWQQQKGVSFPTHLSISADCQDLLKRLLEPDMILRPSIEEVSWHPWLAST
To be noted: TSSK3; 1 μM; read-out: % control.

Experiment [2] concerns the target T2, panel of 468 kinases (Homo sapiens, UniProt P09769).
T2 construct: purchased KINOMEscan (ScanMAX) service
As to conditions: FGR; 1 μM; read-out: % control.

Experiment [3] addresses T3, panel of 468 kinases (Homo sapiens, UniProt Q13153).
T3 construct: purchased KINOMEscan (ScanMAX) service
As to conditions: PAK1; 1 μM; read-out: % control.

Experiment [4] has as its target T4, panel of 468 kinases (Homo sapiens, UniProt P36888, D835Y).
T4 construct: purchased KINOMEscan (ScanMAX) service
T4 sequence (P36888 27-993 D835Y): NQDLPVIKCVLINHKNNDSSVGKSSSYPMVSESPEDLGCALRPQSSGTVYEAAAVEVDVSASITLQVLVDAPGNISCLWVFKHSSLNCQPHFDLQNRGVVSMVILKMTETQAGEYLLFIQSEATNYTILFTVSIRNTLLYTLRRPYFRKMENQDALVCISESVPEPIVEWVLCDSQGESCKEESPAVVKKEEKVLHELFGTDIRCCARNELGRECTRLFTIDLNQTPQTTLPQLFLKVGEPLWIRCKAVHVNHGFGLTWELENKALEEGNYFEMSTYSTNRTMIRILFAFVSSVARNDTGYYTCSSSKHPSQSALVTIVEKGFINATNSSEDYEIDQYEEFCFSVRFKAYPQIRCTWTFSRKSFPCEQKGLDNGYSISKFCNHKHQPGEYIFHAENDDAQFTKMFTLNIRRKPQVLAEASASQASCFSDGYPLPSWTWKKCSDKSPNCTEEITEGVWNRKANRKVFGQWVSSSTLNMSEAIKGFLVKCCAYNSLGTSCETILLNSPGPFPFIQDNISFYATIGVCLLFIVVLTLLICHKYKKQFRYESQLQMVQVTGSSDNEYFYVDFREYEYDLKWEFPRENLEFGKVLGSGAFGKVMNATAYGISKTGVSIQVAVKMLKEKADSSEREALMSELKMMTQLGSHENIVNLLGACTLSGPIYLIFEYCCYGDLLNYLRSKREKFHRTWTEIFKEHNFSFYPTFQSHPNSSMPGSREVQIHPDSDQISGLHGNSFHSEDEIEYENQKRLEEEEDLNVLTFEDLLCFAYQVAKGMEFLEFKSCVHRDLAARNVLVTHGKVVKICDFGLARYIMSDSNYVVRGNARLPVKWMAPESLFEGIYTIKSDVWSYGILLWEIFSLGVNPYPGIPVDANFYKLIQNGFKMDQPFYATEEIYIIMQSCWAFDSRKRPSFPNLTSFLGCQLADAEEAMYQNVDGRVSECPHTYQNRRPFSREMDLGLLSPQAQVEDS
As to conditions: FLT3(D835Y); 1 μM; read-out: % control.

Experiment [5] concerns the target T5, panel of 468 kinases (Homo sapiens, UniProt Q9UL54).
T5 construct: purchased KINOMEscan (ScanMAX) service
T5 sequence (Q9UL54 1-1235): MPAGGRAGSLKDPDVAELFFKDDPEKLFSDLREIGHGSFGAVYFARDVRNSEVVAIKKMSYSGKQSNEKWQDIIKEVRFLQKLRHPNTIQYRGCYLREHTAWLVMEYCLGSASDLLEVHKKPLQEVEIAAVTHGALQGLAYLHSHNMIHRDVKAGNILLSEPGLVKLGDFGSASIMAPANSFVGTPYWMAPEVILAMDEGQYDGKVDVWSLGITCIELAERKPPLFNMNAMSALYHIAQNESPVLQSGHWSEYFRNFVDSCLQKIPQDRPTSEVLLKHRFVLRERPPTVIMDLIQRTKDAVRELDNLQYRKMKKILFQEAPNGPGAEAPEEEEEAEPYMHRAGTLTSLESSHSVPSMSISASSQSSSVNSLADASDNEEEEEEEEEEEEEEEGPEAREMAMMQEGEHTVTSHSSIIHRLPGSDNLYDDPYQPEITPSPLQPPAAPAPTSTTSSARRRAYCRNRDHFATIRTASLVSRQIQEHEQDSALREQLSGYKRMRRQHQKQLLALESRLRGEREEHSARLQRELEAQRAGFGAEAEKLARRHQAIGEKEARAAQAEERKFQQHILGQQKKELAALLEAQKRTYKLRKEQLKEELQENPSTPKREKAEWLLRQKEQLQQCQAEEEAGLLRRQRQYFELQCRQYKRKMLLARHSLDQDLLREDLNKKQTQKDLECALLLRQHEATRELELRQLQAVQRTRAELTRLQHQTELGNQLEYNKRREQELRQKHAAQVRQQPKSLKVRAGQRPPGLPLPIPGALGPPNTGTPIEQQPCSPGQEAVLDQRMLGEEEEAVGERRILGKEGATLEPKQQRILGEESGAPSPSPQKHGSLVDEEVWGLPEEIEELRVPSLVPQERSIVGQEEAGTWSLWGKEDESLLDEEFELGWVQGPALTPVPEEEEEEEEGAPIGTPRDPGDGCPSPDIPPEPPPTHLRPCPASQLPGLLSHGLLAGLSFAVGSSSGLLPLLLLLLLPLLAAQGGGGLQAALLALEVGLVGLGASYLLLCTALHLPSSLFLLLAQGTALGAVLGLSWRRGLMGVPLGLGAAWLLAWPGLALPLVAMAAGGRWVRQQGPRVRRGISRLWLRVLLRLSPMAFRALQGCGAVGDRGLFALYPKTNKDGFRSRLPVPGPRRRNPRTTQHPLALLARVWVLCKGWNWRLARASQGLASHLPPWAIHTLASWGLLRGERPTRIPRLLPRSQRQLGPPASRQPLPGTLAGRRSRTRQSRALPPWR
To be noted: TAOK2; 1 μM; read-out: % control.

The structures appear in SMILES notation.

T3 sequence (Q13153 whole entry): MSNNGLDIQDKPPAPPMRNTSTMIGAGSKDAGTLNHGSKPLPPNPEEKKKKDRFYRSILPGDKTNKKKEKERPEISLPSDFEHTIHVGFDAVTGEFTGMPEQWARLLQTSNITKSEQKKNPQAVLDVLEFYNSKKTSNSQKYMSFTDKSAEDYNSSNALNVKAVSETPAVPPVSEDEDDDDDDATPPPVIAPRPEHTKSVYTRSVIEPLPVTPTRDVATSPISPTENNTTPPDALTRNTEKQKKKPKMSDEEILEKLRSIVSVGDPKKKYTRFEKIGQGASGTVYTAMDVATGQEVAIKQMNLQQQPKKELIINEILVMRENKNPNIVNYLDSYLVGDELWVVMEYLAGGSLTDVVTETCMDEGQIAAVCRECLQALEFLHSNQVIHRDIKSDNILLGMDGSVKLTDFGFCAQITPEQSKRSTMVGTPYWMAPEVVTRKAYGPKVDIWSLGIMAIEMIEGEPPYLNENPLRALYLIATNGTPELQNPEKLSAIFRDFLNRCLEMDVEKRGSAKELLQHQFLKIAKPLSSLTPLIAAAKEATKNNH
T2 sequence (P09769 whole entry): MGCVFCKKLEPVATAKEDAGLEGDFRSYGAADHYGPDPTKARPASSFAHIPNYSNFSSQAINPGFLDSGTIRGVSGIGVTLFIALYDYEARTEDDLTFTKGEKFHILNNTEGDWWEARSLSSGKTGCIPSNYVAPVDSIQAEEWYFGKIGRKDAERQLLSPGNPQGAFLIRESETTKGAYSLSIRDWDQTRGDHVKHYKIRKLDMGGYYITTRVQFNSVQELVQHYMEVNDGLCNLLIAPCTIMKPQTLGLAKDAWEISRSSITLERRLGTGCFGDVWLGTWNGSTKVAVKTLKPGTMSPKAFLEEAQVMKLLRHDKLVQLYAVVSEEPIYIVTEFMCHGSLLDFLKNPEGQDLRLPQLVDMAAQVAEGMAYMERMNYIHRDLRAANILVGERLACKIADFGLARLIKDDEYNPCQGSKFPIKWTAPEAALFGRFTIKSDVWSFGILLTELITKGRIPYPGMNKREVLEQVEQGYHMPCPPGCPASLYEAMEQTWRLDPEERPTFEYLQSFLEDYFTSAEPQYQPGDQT

As to `CNc1nc(Nc2ccc(S(=O)(=O)N3CCC(N4CCOCC4)CC3)cc2OC)nc2[nH]cc(Cl)c12` [Compound 12, 5-chloro-N2-(2-methoxy-4-((4-morpholinopiperidin-1-yl)sulfonyl)phenyl)-N4-methyl-7H-pyrrolo[2,3-d]pyrimidine-2,4-diamine], the remaining binding at 1 µM on panel of 468 kinases [1] was 100%; on panel of 468 kinases [2], 100%; at panel of 468 kinases [3] it was 100%; at panel of 468 kinases [4], 96%; at panel of 468 kinases [5] it was 73%.
As for `CNc1nc(Nc2ccc(P3(=O)CCN(C4CCOCC4)CC3)cc2OC)nc2[nH]cc(Cl)c12` [Compound 77, 4-(4-((5-chloro-4-(methylamino)-7H-pyrrolo[2,3-d]pyrimidin-2-yl)amino)-3-methoxyphenyl)-1-(tetrahydro-2H-pyran-4-yl)-1,4-azaphosphinane 4-oxide], the remaining binding at 1 µM at panel of 468 kinases [1] worked out at 100%; at panel of 468 kinases [2], 100%; on panel of 468 kinases [3], 100%; on panel of 468 kinases [4], 47%; on panel of 468 kinases [5], 76%.
`CNc1nc(Nc2ccc(C(=O)N3CCC(N4CCOCC4)CC3)c3c2OCO3)nc2[nH]cc(Cl)c12` [Compound 75, (7-((5-chloro-4-(methylamino)-7H-pyrrolo[2,3-d]pyrimidin-2-yl)amino)benzo[d][1,3]dioxol-4-yl)(4-morpholinopiperidin-1-yl)methanone]: the remaining binding at 1 µM is 100% at panel of 468 kinases [1]; 100% on panel of 468 kinases [2]; 100% at panel of 468 kinases [3]; 14% on panel of 468 kinases [4]; 77% on panel of 468 kinases [5].
